{"source": "patent US20200405697A1", "about": "“Antitumor Agent” (Taiho Pharmaceutical Co., Ltd, priority 2017, published 2020)", "key": {"[1]": {"biological_target": "T1, human RNR (histidine tagged human M1 and human M2 proteins) (Homo sapiens, UniProt P23921)", "T1 construct": "made in house; host or cells: Escherichia coli", "T1 sequence (P23921 1-792)": "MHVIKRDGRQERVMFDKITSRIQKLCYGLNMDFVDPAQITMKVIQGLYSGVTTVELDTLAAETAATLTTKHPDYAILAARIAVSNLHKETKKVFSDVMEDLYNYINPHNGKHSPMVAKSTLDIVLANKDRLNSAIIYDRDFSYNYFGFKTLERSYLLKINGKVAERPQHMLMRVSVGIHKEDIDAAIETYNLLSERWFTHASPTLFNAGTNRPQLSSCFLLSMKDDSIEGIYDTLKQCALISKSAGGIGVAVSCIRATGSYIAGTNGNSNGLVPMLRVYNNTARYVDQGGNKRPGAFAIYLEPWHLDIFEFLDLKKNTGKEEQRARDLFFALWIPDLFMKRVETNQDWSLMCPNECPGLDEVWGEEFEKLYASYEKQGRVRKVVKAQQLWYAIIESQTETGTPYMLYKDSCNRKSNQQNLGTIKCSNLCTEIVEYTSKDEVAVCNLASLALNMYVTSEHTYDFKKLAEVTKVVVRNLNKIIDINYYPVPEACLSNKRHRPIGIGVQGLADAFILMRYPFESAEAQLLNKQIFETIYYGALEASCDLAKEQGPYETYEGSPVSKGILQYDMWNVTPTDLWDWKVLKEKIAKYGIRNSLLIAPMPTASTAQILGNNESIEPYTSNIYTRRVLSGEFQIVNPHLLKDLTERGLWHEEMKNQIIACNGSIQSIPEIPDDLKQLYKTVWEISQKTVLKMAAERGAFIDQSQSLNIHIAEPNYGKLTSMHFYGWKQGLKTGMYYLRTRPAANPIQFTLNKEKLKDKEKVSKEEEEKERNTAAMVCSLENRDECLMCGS", "assay": "Human RNR inhibition effect (dCDP formation from CDP)", "format": "biochemical", "conditions": "10 μM CDP, 37° C. for 30 minutes, read-out: RNR inhibitory activity IC50", "procedure,_shortened": "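His-tagged human M1 (isoform 1) and N-terminal 59-aa-truncated M2 (isoform 2), E. coli-expressed, Ni-purified, preincubated 20 min with compound (1% DMSO). Reaction with 10 μM CDP, 2 mM ATP, 0.24 mM NADPH, 6 mM DTT, 4 mM Mg acetate, 100 mM KCl, 50 mM HEPES pH 7.2, 30 min at 37° C. dCDP formed quantified by reverse-phase HPLC after heat stop.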"}, "[2]": {"system": "CFPAC-1 (Human pancreatic cancer cell line)", "assay": "Effect of combination of sulfonamide compound and other antitumor agent (CellTiter-Glo, combination index): CFPAC-1;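 note: cells exposed to both agents together for 3 days, viability read by luminescence, normalized to vehicle-treated control wells, mean of triplicate wells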", "experimental": "Each cell line was seeded at 90 L/well to a 96-well culture plate (Thermo Fisher Scientific, Inc.) according to the above tables. The cell-seeded plate was cultured in an incubator set to 37° C. and 500 CO2. On the day following seeding, varying concentrations of the sulfonamide compound and the other antitumor agent were added in combination to the cells. […] The serial dilutions of each compound, or DW was added at 5μL/well to the plate such that each compound and DW, or the sulfonamide compound and the other antitumor agent were combined. […] The plate after the addition was cultured at 37° C. for 3 days under 5% CO2 conditions.\nThree days later, CellTiter-Glo(R) 2.0 Reagent (Promega Corporation) was added at 100 μL/well, and the amount of luminescence was measured using a plate reader EnSpire(R) Multimode Plate Reader (PerkinElmer Co., Ltd.).\nAn average value from 3 wells was calculated as to each drug condition from the obtained data, and cell survival rate normalized against control wells supplemented with the vehicle (DW) was calculated. A Fa (fractional inhibition) value was calculated by subtracting the cell survival rate from 1."}, "[3]": {"conditions": "Example Compound 1 225 nM + Prexasertib 1.89 nM, molar ratio 1:0.008406"}, "[4]": {"conditions": "Example Compound 1 338 nM + AZD6738 925 nM, molar ratio 1:2.738"}, "[5]": {"conditions": "Example Compound 1 338 nM + Prexasertib 2.84 nM, molar ratio 1:0.008406"}, "[6]": {"conditions": "Example Compound 1 338 nM + SCH900776 253 nM, molar ratio 1:0.7487"}, "[7]": {"conditions": "Example Compound 1 507 nM + AZD6738 1390 nM, molar ratio 1:2.738"}, "[8]": {"conditions": "Example Compound 1 507 nM + Prexasertib 4.26 nM, molar ratio 1:0.008406"}, "[9]": {"conditions": "Example Compound 1 507 nM + SCH900776 380 nM, molar ratio 1:0.7487"}, "[10]": {"conditions": "Example Compound 1 760 nM + AZD6738 2080 nM, molar ratio 1:2.738"}, "[11]": {"conditions": "Example Compound 1 760 nM + Gemcitabine 5.28 nM, molar ratio 1:0.006950"}, "[12]": {"conditions": "Example Compound 1 760 nM + SCH900776 569 nM, molar ratio 1:0.7487"}}, "data": [{"smiles": "Cc1ccc(F)c([C@@H](C)[C@H](NS(=O)(=O)c2ccc(Br)cc2C(N)=O)c2n[nH]c(=O)o2)c1C", "note": "[Example 1, 5-bromo-2-(N-((1 S,2R)-2-(6-fluoro-2,3-dimethylphenyl)-1-(5-oxo-4,5-dihydro-1,3,4-oxadiazol-2-yl)propyl)sulfamoyl)benzamide]", "values": [{"measurement": "IC50", "setting": "[1]", "result": 60, "unit": "nM"}, {"measurement": "CI value", "setting": "[2]; [3]", "result": 0.825}, {"measurement": "Fa value", "setting": "[2]; [3]", "result": 0.2319}, {"measurement": "CI value", "setting": "[2]; [4]", "result": 0.484}, {"measurement": "Fa value", "setting": "[2]; [4]", "result": 0.4791}, {"measurement": "CI value", "setting": "[2]; [5]", "result": 0.580}, {"measurement": "Fa value", "setting": "[2]; [5]", "result": 0.6056}, {"measurement": "CI value", "setting": "[2]; [6]", "result": 0.496}, {"measurement": "Fa value", "setting": "[2]; [6]", "result": 0.4162}, {"measurement": "CI value", "setting": "[2]; [7]", "result": 0.356}, {"measurement": "Fa value", "setting": "[2]; [7]", "result": 0.7266}, {"measurement": "CI value", "setting": "[2]; [8]", "result": 0.633}, {"measurement": "Fa value", "setting": "[2]; [8]", "result": 0.7542}, {"measurement": "CI value", "setting": "[2]; [9]", "result": 0.369}, {"measurement": "Fa value", "setting": "[2]; [9]", "result": 0.6944}, {"measurement": "CI value", "setting": "[2]; [10]", "result": 0.427}, {"measurement": "Fa value", "setting": "[2]; [10]", "result": 0.7884}, {"measurement": "CI value", "setting": "[2]; [11]", "result": 0.790}, {"measurement": "Fa value", "setting": "[2]; [11]", "result": 0.6416}, {"measurement": "CI value", "setting": "[2]; [12]", "result": 0.472}, {"measurement": "Fa value", "setting": "[2]; [12]", "result": 0.7479}]}]}
